Measurements published in the supplement of paper PMC11208160.

assay: recombinant UMI read abundance after kanamycin selection (control-corrected) (log10(CPM+1)); higher = more efficient recombination; extreme values may be limits of the assay; sequences stand for … in AGTGCAGAGAAAATCGGCCAGTTTTCTCTGCCTGCAGTCCGCATGCCGTGGGACCCCTTGGGTTCTAACCTGTTGCCTAGATTTATGCAGCGGACTGCCTTTCTCCCAAAGTGATAAACCGG…AGGTTGGTTTCACT; site = the 11-nt donor
Procedure, shortened: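 Sequencing read counts were converted to CPM, averaged over two replicates and scaled by control-derived factors. Results are given as log10(CPM+1). The reads covered the donor–target junction of recombinant UMIs from a pooled Escherichia coli screen of donor and donor-binding-loop pairs for the IS621 bridge recombinase.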
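Also: IS621 bridge recombinase in Escherichia coli cells against a fixed T5 target plasmid.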

Sequence	recombinant UMI read abundance (log10)
CTGCTACCATGGACCGGTTTTCCCGGTAATCCGTATTTGAT (site CTGCTACCTAC)	0.00934
CTGCTACCATGGACCGGTTTTCCCGGTAATCCGTATTTGAT (site CTGCTACCTAG)	0.00723
CTGCTACCATGGACCGGTTTTCCCGGTAATCCGTATTTGAT (site CTGCTACCTAT)	0.00649
CTGCTACCATGGACCGGTTTTCCCGGTAATCCGTATTTGCC (site CTGCTACCTAG)	0
CTGCTACCATGGACCGGTTTTCCCGGTAATCCGTATTTGCC (site CTGCTACCTCG)	0.00838
CTGCTACCATGGACCGGTTTTCCCGGTAATCCGTATTTGCC (site CTGCTACCTGG)	0
CTGCTACCATGGACCGGTTTTCCCGGTAATCCGTATTTGCC (site CTGCTACCTTG)	0
CTGCTACCATGGACCGGTTTTCCCGGTAATCCGTATTTGCT (site ATGCTACCTAG)	0.00358
CTGCTACCATGGACCGGTTTTCCCGGTAATCCGTATTTGCT (site CAGCTACCTAG)	0
CTGCTACCATGGACCGGTTTTCCCGGTAATCCGTATTTGCT (site CCGCTACCTAG)	0
CTGCTACCATGGACCGGTTTTCCCGGTAATCCGTATTTGCT (site CGGCTACCTAG)	0
CTGCTACCATGGACCGGTTTTCCCGGTAATCCGTATTTGCT (site CTACTACCTAG)	0
CTGCTACCATGGACCGGTTTTCCCGGTAATCCGTATTTGCT (site CTCCTACCTAG)	0
CTGCTACCATGGACCGGTTTTCCCGGTAATCCGTATTTGCT (site CTGATACCTAG)	0
CTGCTACCATGGACCGGTTTTCCCGGTAATCCGTATTTGCT (site CTGCAACCTAG)	0
CTGCTACCATGGACCGGTTTTCCCGGTAATCCGTATTTGCT (site CTGCCACCTAG)	0.00361
CTGCTACCATGGACCGGTTTTCCCGGTAATCCGTATTTGCT (site CTGCGACCTAG)	0
CTGCTACCATGGACCGGTTTTCCCGGTAATCCGTATTTGCT (site CTGCTAACTAG)	0.00893
CTGCTACCATGGACCGGTTTTCCCGGTAATCCGTATTTGCT (site CTGCTACCTAA)	0.0092
CTGCTACCATGGACCGGTTTTCCCGGTAATCCGTATTTGCT (site CTGCTACCTAC)	0.00952
CTGCTACCATGGACCGGTTTTCCCGGTAATCCGTATTTGCT (site CTGCTACCTAG)	0
CTGCTACCATGGACCGGTTTTCCCGGTAATCCGTATTTGCT (site CTGCTACCTAT)	0
CTGCTACCATGGACCGGTTTTCCCGGTAATCCGTATTTGCT (site CTGCTACCTCG)	0.0163

Sequence	recombinant UMI read abundance (log10)
CTGCTACCATGGACCGGTTTTCCCGGTAATCCGTATTTGCT (site CTGCTACCTGG)	0
CTGCTACCATGGACCGGTTTTCCCGGTAATCCGTATTTGCT (site CTGCTACCTTG)	0
CTGCTACCATGGACCGGTTTTCCCGGTAATCCGTATTTGCT (site CTGCTAGCTAG)	0
CTGCTACCATGGACCGGTTTTCCCGGTAATCCGTATTTGCT (site CTGCTATCTAG)	1.67
CTGCTACCATGGACCGGTTTTCCCGGTAATCCGTATTTGCT (site CTGCTCCCTAG)	0.543
CTGCTACCATGGACCGGTTTTCCCGGTAATCCGTATTTGCT (site CTGCTGCCTAG)	0.038
CTGCTACCATGGACCGGTTTTCCCGGTAATCCGTATTTGCT (site CTGCTTCCTAG)	0
CTGCTACCATGGACCGGTTTTCCCGGTAATCCGTATTTGCT (site CTGGTACCTAG)	0
CTGCTACCATGGACCGGTTTTCCCGGTAATCCGTATTTGCT (site CTGTTACCTAG)	0
CTGCTACCATGGACCGGTTTTCCCGGTAATCCGTATTTGCT (site CTTCTACCTAG)	0
CTGCTACCATGGACCGGTTTTCCCGGTAATCCGTATTTGCT (site GTGCTACCTAG)	0
CTGCTACCATGGACCGGTTTTCCCGGTAATCCGTATTTGCT (site TTGCTACCTAG)	0.00622
CTGCTCTCATGGACCGGTTTTCCCGGTAATCCGTATTTGTA (site CTACTCTCTTA)	2.71
CTGCTCTCATGGACCGGTTTTCCCGGTAATCCGTATTTGTA (site CTCCTCTCTTA)	0.876
CTGCTCTCATGGACCGGTTTTCCCGGTAATCCGTATTTGTA (site CTGCTCTCTTA)	2.98
CTGCTCTCATGGACCGGTTTTCCCGGTAATCCGTATTTGTA (site CTTCTCTCTTA)	1.06
CTGCTGACATGGACCGGTTTTCCCGGTAATCCGTATTTGAC (site CTGCTGACTGT)	1.02
CTGCTTGCATGGACCGGTTTTCCCGGTAATCCGTATTTGAT (site CTGCTTGCTAT)	2.21
CTGGAAACATGGACCGGTTTTCCCGGTAATCCGTATTTGCT (site CTGGAAACTAG)	2.45
CTGGAAACATGGACCGGTTTTCCCGGTAATCCGTATTTGCT (site CTGGAAACTCG)	0.534
CTGGAAACATGGACCGGTTTTCCCGGTAATCCGTATTTGCT (site CTGGAAACTGG)	1.1
CTGGAAACATGGACCGGTTTTCCCGGTAATCCGTATTTGCT (site CTGGAAACTTG)	0.49
CTGGAAACATGGACCGGTTTTCCCGGTAATCCGTATTTGGA (site CTGGAAACTTA)	0.993

Sequence	recombinant UMI read abundance (log10)
CTGGAAACATGGACCGGTTTTCCCGGTAATCCGTATTTGGA (site CTGGAAACTTC)	1.89
CTGGAAACATGGACCGGTTTTCCCGGTAATCCGTATTTGGA (site CTGGAAACTTG)	0
CTGGAAACATGGACCGGTTTTCCCGGTAATCCGTATTTGGA (site CTGGAAACTTT)	2.09
CTGGAGACATGGACCGGTTTTCCCGGTAATCCGTATTTGCA (site CTGGAAACTTG)	2.32
CTGGAGACATGGACCGGTTTTCCCGGTAATCCGTATTTGCA (site CTGGACACTTG)	2.12
CTGGAGACATGGACCGGTTTTCCCGGTAATCCGTATTTGCA (site CTGGAGACTTG)	2.66
CTGGAGACATGGACCGGTTTTCCCGGTAATCCGTATTTGCA (site CTGGATACTTG)	1.03
CTGGCAACATGGACCGGTTTTCCCGGTAATCCGTATTTGCA (site CTGGAAACTTG)	0
CTGGCAACATGGACCGGTTTTCCCGGTAATCCGTATTTGCA (site CTGGCAACTTG)	1.01
CTGGCAACATGGACCGGTTTTCCCGGTAATCCGTATTTGCA (site CTGGGAACTTG)	0
CTGGCAACATGGACCGGTTTTCCCGGTAATCCGTATTTGCA (site CTGGTAACTTG)	0
CTGGCACCATGGACCGGTTTTCCCGGTAATCCGTATTTGGC (site CTGGCACCTGC)	0.523
CTGGCTGCATGGACCGGTTTTCCCGGTAATCCGTATTTGCG (site CTGGCTGCTCG)	0.887
CTGGTACCATGGACCGGTTTTCCCGGTAATCCGTATTTGCT (site CTGATACCTAG)	0
CTGGTACCATGGACCGGTTTTCCCGGTAATCCGTATTTGCT (site CTGCTACCTAG)	0
CTGGTACCATGGACCGGTTTTCCCGGTAATCCGTATTTGCT (site CTGGTACCTAG)	0
CTGGTACCATGGACCGGTTTTCCCGGTAATCCGTATTTGCT (site CTGTTACCTAG)	0
CTGTAAACATGGACCGGTTTTCCCGGTAATCCGTATTTGCA (site CTGAAAACTTG)	0
CTGTAAACATGGACCGGTTTTCCCGGTAATCCGTATTTGCA (site CTGCAAACTTG)	0.604
CTGTAAACATGGACCGGTTTTCCCGGTAATCCGTATTTGCA (site CTGGAAACTTG)	0
CTGTAAACATGGACCGGTTTTCCCGGTAATCCGTATTTGCA (site CTGTAAACTTG)	1.29
CTGTACCCATGGACCGGTTTTCCCGGTAATCCGTATTTGTA (site CTGTACCCTTA)	0.461
